Structures can show the parent of a compound that is named as a salt. A value given as a limit tells only on which side of the number the result lay.

T1 sequence (P31652 whole entry): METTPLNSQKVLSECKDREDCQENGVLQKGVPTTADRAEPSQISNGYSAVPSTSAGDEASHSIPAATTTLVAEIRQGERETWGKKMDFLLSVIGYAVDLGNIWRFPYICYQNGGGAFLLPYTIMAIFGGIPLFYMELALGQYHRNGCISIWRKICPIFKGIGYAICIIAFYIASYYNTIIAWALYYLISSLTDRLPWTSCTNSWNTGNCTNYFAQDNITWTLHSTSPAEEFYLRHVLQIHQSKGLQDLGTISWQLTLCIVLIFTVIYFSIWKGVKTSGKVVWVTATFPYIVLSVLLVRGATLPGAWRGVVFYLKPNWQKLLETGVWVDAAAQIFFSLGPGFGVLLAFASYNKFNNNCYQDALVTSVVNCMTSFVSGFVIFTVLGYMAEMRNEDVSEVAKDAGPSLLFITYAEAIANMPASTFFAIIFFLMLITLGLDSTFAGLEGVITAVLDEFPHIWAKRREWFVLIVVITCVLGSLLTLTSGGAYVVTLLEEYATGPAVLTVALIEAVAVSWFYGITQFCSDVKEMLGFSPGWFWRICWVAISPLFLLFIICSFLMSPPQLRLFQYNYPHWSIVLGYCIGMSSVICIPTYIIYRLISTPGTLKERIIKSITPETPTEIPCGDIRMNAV

Test system in one data set: not given
Assay: not given
Conditions: not given
For the molecule `CN(C)C[C@H]1[C@H]2CC[C@H](C2)[C@@H]1c1ccc2ccsc2c1` (as salt: hydrochloride), the melting point (as a rule, the temperature of the solid-liquid transition) fell in the range of 240 to 242 °C.

The molecule `Cc1csc2ccc([C@@H]3[C@H]4CC[C@H](C4)[C@H]3CN(C)C)cc12` (as salt: hydrochloride) [N,N-dimethyl[(1R,2R,3R,4S)-3-(3-methyl-1-benzothien-5-yl)bicyclo[2.2.1]hept-2-yl]methanamine] registered a melting point of 250 to 252 °C.

Consider `CN(C)C[C@H]1[C@H]2CC[C@H](C2)[C@@H]1c1ccc2cc(F)ccc2c1` (as salt: hydrochloride) [[(1S,2S,3S,4R)-3-(6-fluoro-2-naphthyl)bicyclo[2.2.1]hept-2-yl]-N,N-dimethylmethanamine], for which the melting point lay within 137 to 138 °C.

Consider `CN(C)CC1C2CCC(C2)C1c1ccc2ccccc2c1` (stereo not drawn) (as salt: hydrochloride) [cis- N,N-dimethyl(3-naphthalen-2-ylbicyclo[2.2.1]hept-2-yl)m] [cis-N,N-dimethyl (3-naphthalen-2-ylbicyclo[2.2.1]hept-2-yl)methanamine], for which the melting point was 255 to 257 °C.

`CN(C)CC1C2CCC(C2)C1c1ccc2ccccc2c1` (stereo not drawn) (as salt: hydrochloride) [trans-endo-N,N-dimethyl(3-naphthalen-2-ylbicyclo[2.2.1]hept-] [trans-endo-N,N-dimethyl(3-naphthalen-2-ylbicyclo[2.2.1]hept-2-yl)methanamine] had a melting point of 249 to 250 °C.

A further data set has as its target T1, [3H]-citalopram binding sites on rat cerebral cortical membranes (serotonin reuptake) (Rattus norvegicus, UniProt P31652).
T1 construct: from tissue; host or cells: rat cerebral cortex membranes
In words: [3H]-Citalopram binding assay.
Conditions: not given
`CN(C)C[C@H]1[C@H]2CC[C@H](C2)[C@@H]1c1ccc2cc(F)ccc2c1` [[(1S,2S,3S,4R)-3-(6-fluoro-2-naphthyl)bicyclo[2.2.1]hept-2-yl]-N,N-dimethylmethanamine]: the inhibitory constant (Ki) (usually the equilibrium dissociation constant of an inhibitor or competing ligand from its target) was < 100 nM.

`CN(C)CC1C2CCC(C2)C1c1ccc2ccccc2c1` (stereo not drawn) [trans-endo-N,N-dimethyl(3-naphthalen-2-ylbicyclo[2.2.1]hept-2-yl)methanamine]: the inhibitory constant (Ki) was < 100 nM.

`CNCC1C2CCC(C2)C1c1ccc2ccccc2c1` (stereo not drawn) [trans-endo-N-methyl (3-naphthalen-2-ylbicyclo [2.2.1]hept-2-yl)methanamine]: the Ki was < 100 nM.

The same data set, now with this note: displacement of [3H]-citalopram, rat cerebral cortical membranes, 37° C. for 90 minutes; read-out: Ki.
For the molecule `Cc1csc2ccc([C@@H]3[C@H]4CC[C@H](C4)[C@H]3CN(C)C)cc12` [N,N-dimethyl[(1R,2R,3R,4S)-3-(3-methyl-1-benzothien-5-yl)bicyclo[2.2.1]hept-2-yl]methanamine], the Ki is < 100 nM.

`CN(C)C[C@H]1[C@H]2CC[C@H](C2)[C@@H]1c1cc2ccc(F)cc2s1` [[(1S,2S,3S,4R)-3-(6-fluoro-1-benzothien-2-yl)bicyclo[2.2.1]hept-2-yl)-N,N-dimethylmethanamine]: the Ki was < 100 nM.

With `CN(C)C[C@H]1[C@H]2CC[C@H](C2)[C@@H]1c1csc2cc(F)ccc12` [[(1S,2S,3S,4R)-3-(6-fluoro-1-benzothien-3-yl)bicyclo[2.2.1]hept-2-yl]-N,N-dimethylmethanamine], the Ki was < 100 nM.

With `NCC1C2CCC(CC2)C1c1ccc2ccccc2c1` (stereo not drawn) [trans-(3-Naphthalen-2-ylbicyclo[2.2 .2]oct-2-yl)methanamine], the Ki was < 100 nM.

Values taken from patent US6384281B1, “3-bicycloaryl-2-aminomethyl bicycloalkanes as serotonine reuptake inhibitors” (Eli Lilly and Company, priority 1999, dated 2002).
